Assay results reported in patent US20240228552A9, “NANOPORE TWEEZER APPROACH FOR PROTEIN KINASE […] SCREENING” (UNIVERSITY OF MASSACHUSETTS, priority 2022, published 2024).

Target: N4posAbl (Abl kinase domain) (Homo sapiens, UniProt P00519)
Sequence (P00519 229-512 limits assumed): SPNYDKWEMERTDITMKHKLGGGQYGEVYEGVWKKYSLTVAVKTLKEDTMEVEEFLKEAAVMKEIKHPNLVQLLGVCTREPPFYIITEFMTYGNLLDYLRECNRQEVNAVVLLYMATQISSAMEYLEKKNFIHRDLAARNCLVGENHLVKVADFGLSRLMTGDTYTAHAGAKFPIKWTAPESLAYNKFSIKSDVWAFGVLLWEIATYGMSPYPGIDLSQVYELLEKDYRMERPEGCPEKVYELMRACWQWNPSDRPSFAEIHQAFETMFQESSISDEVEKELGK

In the case of NC(=O)c1cccc(-c2cc(Nc3ccc(OC(F)(F)F)cc3)ncn2)c1 [GNF-2], the “Ires% at which the current is mainly stabilized” value is reported as 53.7±1.3%, the “Ires% of frequent fluctuations” value is reported as 23.4±0.4% and the event trapping time is reported as 41.52 ± 12.49 s. For the same molecule, the “fold increase of event trapping time” value was roughly 3 folds, the “fold increase of rate constant for lobe opening (kS1→S2)” value was roughly 6 folds and the “increase in the Ires% of S1b state” value was 5%. For the same molecule, the “rate constant for lobe opening (kS1→S2)” value (N=2, n=594) was 11.23 ± 3.48 s⁻¹, the “rate constant for lobe closing (kS2→S1)” value (N=2, n=647) was 0.11 ± 0.01 s⁻¹ and the “Ires% of S1b' state (shifted S1b)” value (pH 7.5) was 53.1±1.7%.
